From ChEMBL document CHEMBL3826897, “A facile and rapid access to resveratrol derivatives and their radioprotective activity” (Bioorg Med Chem Lett, 2016)

Columns and labels:
[1] = Radioprotective activity in rat thymocytes assessed as radio-modification factor pretreated at 1 uM followed by 2 Gy X-ray irradiation measured after 4 hrs by flow cytometric analysis relative to control; type: ADME, cell-based; conditions: thymocyte
[2] = Radioprotective activity in rat thymocytes assessed as radio-modification factor pretreated at 10 uM followed by 2 Gy X-ray irradiation measured after 4 hrs by flow cytometric analysis relative to control; type: ADME, cell-based; conditions: thymocyte
[3] = Radioprotective activity in rat thymocytes assessed as radio-modification factor pretreated at 100 uM followed by 2 Gy X-ray irradiation measured after 4 hrs by flow cytometric analysis relative to control; type: ADME, cell-based; conditions: thymocyte
[4] = Radioprotective activity in rat thymocytes assessed as radio-modification factor pretreated at 1000 uM followed by 2 Gy X-ray irradiation measured after 4 hrs by flow cytometric analysis relative to control; type: ADME, cell-based; conditions: thymocyte
Thymocyte [5] = experiment: Toxicity in rat thymocytes assessed as increase in cell death at 1 uM measured after 4 hrs by flow cytometric analysis relative to control; type: cell-based
Thymocyte [6] = experiment: Toxicity in rat thymocytes assessed as increase in cell death at 10 uM measured after 4 hrs by flow cytometric analysis relative to control; type: cell-based
Thymocyte [7] = experiment: Toxicity in rat thymocytes assessed as increase in cell death at 100 uM measured after 4 hrs by flow cytometric analysis relative to control; type: cell-based
Thymocyte [8] = experiment: Toxicity in rat thymocytes assessed as increase in cell death at 1000 uM measured after 4 hrs by flow cytometric analysis relative to control; type: cell-based
[9] = Stability of the compound; type: physicochemical

Ratio [1]	Ratio [2]	Ratio [3]	Ratio [4]	Stability [9]	Structure (SMILES)	Ratio (Thymocyte [5])	Ratio (Thymocyte [6])	Ratio (Thymocyte [7])	Ratio (Thymocyte [8])
				Unstable	Oc1ccc(/C=C/c2ccc(O)c(O)c2)cc1O				
1.7					Oc1ccc(/C=C/c2cc(O)ccc2O)cc1	< 5	> 10	> 10	> 10
0.89	0.81	-0.22			Oc1cc(O)cc(/C=C/c2ccc(F)cc2)c1	< 5	< 5	< 5	> 10
2.2	1.3	-0.3			Oc1ccc(/C=C/c2ccc(O)c(O)c2)cc1	< 5	< 5	< 5	> 10
0.94	1.06	0.11			Cc1ccc(/C=C/c2cc(O)cc(O)c2)cc1	< 5	< 5	> 10	< 5
0.93	1.06	0.59	-0.34		Oc1ccc(/C=C/c2cc(O)cc(O)c2)cc1 [RESVERATROL]	< 5	< 5	< 5	< 5
				Unstable	Nc1ccc(/C=C/c2cc(O)cc(O)c2)cc1				
0.56	0.47				Oc1cc(O)cc(/C=C/c2ccc(Cl)cc2)c1	5	5	> 10	> 10
1.4	1.2	1.6	0.6		Oc1ccc(/C=C/c2cccc(O)c2)cc1 [(E)-3,4'-STILBENDIOL]	< 5	< 5	< 5	< 5
1.14	1.01	0.91			CC(=O)Oc1ccc(/C=C/c2cc(O)cc(O)c2)cc1	< 5	< 5	< 5	> 10

More lines, now with the values behind:

Structure (SMILES)	Ratio [1]	Ratio [2]	Ratio [3]	Ratio [4]	Stability [9]	Ratio (Thymocyte [5])	Ratio (Thymocyte [6])	Ratio (Thymocyte [7])	Ratio (Thymocyte [8])
COc1ccc(/C=C/c2ccc(OC)c(OC)c2)cc1	0.8	1	0.7	0.5		< 5	< 5	< 5	5
COc1ccc(/C=C/c2ccccc2OC)cc1	1.3	1.3	-0.2	0.2		< 5	< 5	< 5	5
COc1ccc(/C=C/c2ccc(OC)c(OC)c2)cc1OC	0.4	1	0.4	0.3		< 5	< 5	5	5
Oc1ccc(/C=C/c2ccc(O)cc2)cc1 [TRANS-4,4'-DIHYDROXYSTILBENE]	0.6	1.1	1.2	1.1		< 5	< 5	< 5	< 5
CC(=O)Nc1ccc(/C=C/c2cc(O)cc(O)c2)cc1					Unstable				
Oc1cccc(/C=C/c2cc(O)cc(O)c2)c1	0.9	0.9	0.3			< 5	< 5	< 5	> 10
COc1cc(/C=C/c2ccc(F)cc2)cc(OC)c1	1.34	1.26				< 5	< 5	> 10	> 10
COc1ccc(/C=C/c2cc(OC)cc(OC)c2)cc1 [TRISMETHOXYRESVERATROL]	0.82	0.85	0.31	-0.15		< 5	< 5	< 5	5
COc1cc(/C=C/c2ccc(Cl)cc2)cc(OC)c1					Unstable				
Oc1ccc(/C=C/c2ccccc2O)cc1	0.4	0.7	0.5			5	< 5	5	> 10
COc1cc(/C=C/c2ccccc2OC)cc(OC)c1	0.8	0.6	0.3	0.1		< 5	< 5	< 5	5
COc1ccc(/C=C/c2cc(OC)ccc2OC)cc1	0.7	1.2	0.9	0.7		< 5	< 5	< 5	< 5
COc1cc(/C=C/c2ccc(OC(C)=O)cc2)cc(OC)c1	0.99	0.86	0.52	0.07		< 5	5	5	5
Oc1cc(O)cc(/C=C/c2ccccc2O)c1	1.2	1.3	0.4			< 5	< 5	< 5	> 10
COc1cccc(/C=C/c2cc(OC)cc(OC)c2)c1	1.4	1.2	1.1	0.2		< 5	< 5	< 5	< 5
COc1ccc(/C=C/c2cccc(OC)c2)cc1	1	1.1	1.1	1.5		< 5	< 5	< 5	< 5
COc1ccc(/C=C/c2ccc(OC)cc2)cc1	1.1	1	1.3	1.5		< 5	< 5	< 5	< 5
COc1cc(/C=C/c2ccccc2)cc(OC)c1 [3,5-O-DIMETHYLPINOSYLVIN]					Unstable				
Oc1cc(O)cc(/C=C/c2ccccc2)c1 [PINOSYLVIN]					Unstable				
COc1cc(/C=C/c2ccc(C)cc2)cc(OC)c1					Unstable				
COc1cc(/C=C/c2ccc(NC(C)=O)cc2)cc(OC)c1	1.25	1.21	0.99	1.05		< 5	< 5	< 5	< 5
